Data: article PMC11988912, “Sensitization Potential of the Major Soybean Allergen Gly m 4 and Its Cross-Reactivity with the Birch Pollen Allergen Bet v 1” (International Journal of Molecular Sciences, 2025)

Each compound was assayed against T1, Gly m 4 (Glycine max, UniProt P26987) (assay: TNS fluorescence displacement). Conditions: 4 uM ligand, 4 uM TNS, 4 uM Gly m 4; 10 mM phosphate buffer pH 7.4, 25 C; residual fluorescence of the Gly m 4-TNS complex.
T1 construct: gene PR-10; recombinant allergen, full length; made in E. coli
T1 sequence (P26987 1-158): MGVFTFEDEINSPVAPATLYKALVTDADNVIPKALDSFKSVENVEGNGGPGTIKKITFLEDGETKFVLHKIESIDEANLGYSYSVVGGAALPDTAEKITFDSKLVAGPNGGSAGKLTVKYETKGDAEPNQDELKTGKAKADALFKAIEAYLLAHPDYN
Type: binding

| SMILES | % of the control fluorescence |
| --- | --- |
| C[C@H](CCC(=O)O)[C@H]1CC[C@H]2[C@@H]3[C@H](O)C[C@@H]4C[C@H](O)CC[C@]4(C)[C@H]3C[C@H](O)[C@]12C [CA, cholic acid] | 88% |
| C[C@H](CCC(=O)O)[C@H]1CC[C@H]2[C@@H]3[C@H](O)C[C@@H]4C[C@H](O)CC[C@]4(C)[C@H]3CC[C@]12C [CDCA, chenodeoxycholic acid] | 53% |
| CC(C)CCC[C@@H](C)[C@H]1CC[C@H]2[C@@H]3CC=C4C[C@@H](O)CC[C@]4(C)[C@H]3CC[C@]12C [CHOL, cholesterol] | 83% |
| C[C@H](CCC(=O)O)[C@H]1CC[C@H]2[C@@H]3CC[C@@H]4C[C@H](O)CC[C@]4(C)[C@H]3C[C@H](O)[C@]12C [DCA, deoxycholic acid] | 71% |
| C[C@H](CCC(=O)O)[C@H]1CC[C@H]2[C@@H]3CC[C@@H]4C[C@H](O)CC[C@]4(C)[C@H]3CC[C@]12C [LCA, lithocholic acid] | 10% |
